Laboratory results from patent US20230181491A1, “COMPOSITIONS AND METHODS FOR THE TREATMENT AND MANAGEMENT OF INFLAMMATION USING HYDROXYNORKETAMINE” (SPIRIFY PHARMA INC., priority 2020, published 2023).
Structures can show the parent of a compound that is named as a salt. Where two headings read alike, the source gives them in different places.

How the values were obtained:
[1] = test system: LPS-induced human primary monocytes; test: Release of cytokines (IL-6, TNF-α, IL-8, IL-1β) and PGE2 from LPS-induced human primary monocytes (ELISA, normalized to LPS = 100%); type: cell-based; details: for effect on secretion of all proinflammatory cytokines tested (IL-6, IL-1β, TNF-α, IL-8): 0.1 μM-250 μM; for inhibition at 50 µM / inhibition at 250 µM: Homo sapiens, Monocyte
[2] = test system: human primary monocytes; test: Viability of human primary monocytes (Alamar Blue); details: 50 μM and 250 μM; for viability of human primary monocytes: then 24 h LPS
Procedure: Viability of human primary monocytes—viable human primary monocyte cells were counted using Alamar Blue. Treatment with toxic amounts of sodium fluoride (NaF at 250 μg/ml) was used as control.
To this end, human primary monocytes were incubated for 24 hours and 48 hours with (R,S)-ketamine, (2R,6R)-hydroxynorketamine, (R,S)-norketamine, and (R,S)-dehydronorketamine at concentrations of 50 μM and 250 μM. LPS alone and treatment with dexamethasone (1 μM) were used as controls. Monocyte cells' viability was measured using Alamar blue to evaluate toxicity of the agents.

[3] = test system: rats; details: cited from earlier work
[4] = test system: rodents; details: cited from earlier work
[5] = test system: COVID-19 patients; details: cited from earlier work
[6] = test system: radical prostatectomy patients; details: cited from earlier work
[7] = 50 μM and 250 μM, 24 h pre-treatment, then 24 h LPS
[8] = 50 μM and 250 μM, 48 h pre-treatment, then 24 h LPS
[9] = 30 min pre-treatment, then 24 h LPS
[10] = 50 μM, 48 h pre-treatment, then 24 h LPS
[11] = 250 μM, 30 min pre-treatment, then 24 h LPS, read-out: inhibition of LPS-induced IL-1β release
[12] = 250 μM, 30 min pre-treatment, then 24 h LPS, read-out: inhibition of LPS-induced IL-6 release
[13] = 250 μM, 30 min pre-treatment, then 24 h LPS, read-out: inhibition of LPS-induced IL-8 release
[14] = 250 μM, 30 min pre-treatment, then 24 h LPS, read-out: inhibition of LPS-induced TNF-α release
[15] = 250 μM, 24 h pre-treatment, then 24 h LPS, read-out: inhibition of LPS-induced IL-6 release
[16] = 250 μM, 24 h pre-treatment, then 24 h LPS, read-out: inhibition of LPS-induced TNF-α release
[17] = 250 μM, 48 h pre-treatment, then 24 h LPS, read-out: inhibition of LPS-induced TNF-α release
[18] = 250 μM, 30 min pre-treatment, then 24 h LPS
[19] = 250 μM, 24 h pre-treatment, then 24 h LPS

Molecule	effect on IL-6 secretion [1, 7]	effect on LPS-induced IL-8 release [1, 7]	effect on PGE2 secretion [1, 7]	effect on TNF-α secretion [1, 7]	effect on IL-6 secretion [1, 8]	effect on PGE2 secretion [1, 8]	effect on TNF-α secretion [1, 8]	effect on secretion of all proinflammatory cytokines tested (IL-6, IL-1β, TNF-α, IL-8) [1, 9]	anesthetic effects [3]	further results
NC1(c2ccccc2Cl)CCC=CC1=O (racemic) [(R,S)-dehydronorketamine]	dramatically reduced all cytokines release	dramatically reduced all cytokines release	dramatically reduced	dramatically reduced all cytokines release	dramatically reduced all cytokines release	dramatically reduced	dramatically reduced all cytokines release			effect on LPS-mediated IL-8 release [1, 8]: dramatically reduced all cytokines release; viability of human primary monocytes ([2]; 24 h pre-treatment): highly toxic to the cells; viability of human primary monocytes ([2]; 48 h pre-treatment): induced a massive cells' mortality
CNC1(c2ccccc2Cl)CCCCC1=O (racemic) [(R,S)-ketamine hydrochloride]	inhibition in the secretion	without affecting IL-8	inhibition in the secretion	inhibition in the secretion	inhibition of TNF-α, IL-6, and PGE2 secretion	inhibition of TNF-α, IL-6, and PGE2 secretion	inhibition of TNF-α, IL-6, and PGE2 secretion	potent inhibitory effect	produced anesthetic actions	inhibition at 50 µM [1, 10]: ~40%; inhibition at 250 µM [1, 11]: 30 to 60%; inhibition at 250 µM [1, 12]: 30 to 60%; inhibition at 250 µM [1, 13]: 30 to 60%; inhibition at 250 µM [1, 14]: 30 to 60%; inhibition at 250 µM [1, 15]: ~30%; inhibition at 250 µM [1, 16]: ~70%; inhibition at 250 µM [1, 17]: ~75%
NC1(c2ccccc2Cl)CCCCC1=O (racemic) [(R,S)-norketamine]	remained without any significant change	remained without any significant change	promoted the secretion of PGE2	inhibited the secretion of TNF-α only at the higher dose tested	inhibited the secretion of TNF-α and IL-6	promoted the secretion of the proinflammatory agent PGE2 at 250 μM	inhibited the secretion of TNF-α and IL-6		produced anesthetic actions	
N[C@@]1(c2ccccc2Cl)CCC[C@@H](O)C1=O [(2R,6R)-2-amino-2-(2-chlorophenyl)-6-hydroxycyclohexanone]	inhibition in the secretion	not affected	inhibition in the secretion	inhibition in the secretion	inhibition of TNF-α, IL-6, and PGE2 secretion	inhibition of TNF-α, IL-6, and PGE2 secretion	inhibition of TNF-α, IL-6, and PGE2 secretion	cytokines release decrease in a dose dependent manner		inhibition at 50 µM [1, 10]: ~20%; inhibition at 250 µM [1, 11]: ~20%; inhibition at 250 µM [1, 12]: ~20%; inhibition at 250 µM [1, 13]: ~20%; inhibition at 250 µM [1, 14]: ~30%; inhibition at 250 µM [1, 15]: ~35%; inhibition at 250 µM [1, 16]: ~40%; inhibition at 250 µM [1, 17]: ~55%; antidepressant-relevant behavioral responses [4]: exert antidepressant-relevant behavioral responses; safety to monocytes (viability), overall conclusion ([2]; 24 h and 48 h pre-treatment): monocytes safety
N[C@]1(c2ccccc2Cl)CCC[C@H](O)C1=O [(2S,6S)-hydroxynorketamine hydrochloride, (2S,65)-2-amino-2-(2-chlorophenyl)-6-hydroxycyclohexanone]		not affected						cytokines release decrease in a dose dependent manner		inhibition of LPS-induced TNF-α release [1, 10]: approx. 30%; inhibition of LPS-induced IL-1β release [1, 18]: ~20%; inhibition of LPS-induced IL-6 release [1, 18]: ~20%; inhibition of LPS-induced IL-8 release [1, 18]: ~20%; inhibition of LPS-induced TNF-α release [1, 18]: approx. 30%; inhibition of LPS-induced IL-6 release [1, 19]: about 10%; inhibition of LPS-induced TNF-α release [1, 19]: approx. 30%; inhibition of LPS-induced TNF-α release ([1]; 250 μM, 48 h pre-treatment, then 24 h LPS): approx. 40%; antidepressant-relevant behavioral responses [4]: exert antidepressant-relevant behavioral responses
Cc1ccc(-c2cc(C(F)(F)F)nn2-c2ccc(S(N)(=O)=O)cc2)cc1 [Celebrex]										PGE2 levels [5]: significantly reduced
C[C@@H]1C[C@H]2[C@@H]3CCC4=CC(=O)C=C[C@]4(C)[C@@]3(F)[C@@H](O)C[C@]2(C)[C@@]1(O)C(=O)CO [Dexamethasone, dexamethasone]										reduction of cytokines release ([1]; 10 μM, control, 30 min pre-treatment study (not shown)): about 60%
CN[C@]1(c2ccccc2Cl)CCCCC1=O [S-ketamine, (S)-ketamine]										surgery-associated increase in IL-6 [6]: attenuates; surgery-associated increase in TNF [6]: attenuates
(2R,6R;2S,6S)-HNK									no anesthetic or hyperlocomotor effects	
